From US5753694A, “Anticonvulsant derivatives useful in treating amyotrophic lateral sclerosis (ALS)” (Ortho Pharmaceutical Corporation, priority 1997, dated 1998)
Read-outs that look alike come from different tables or passages of the source.

Assays:
[1] = test system: AMPA/kainate subtype of glutamate receptors; assay: Antagonism of kainate-evoked currents, perforated whole-cell patch-clamp on primary cultures of hippocampal neurons; format: cell-based, rat; conditions: for EC50: cultured fetal rat hippocampal neurons
Description: Johnson Pharmaceutical Research Institute, Internal Research Reports, Document ID Accession Numbers A500,960 and 398533:1). In these studies, primary cultures enriched in neurons derived from the hippocampus of fetal rats were grown in vitro for 14 to 21 days under conditions that allowed them to reach a high density and develop numerous synaptic contacts. Perforated whole-cell patch-clamp procedures were used to study electrical properties of the neuronal membranes. In this procedure electrical contact between the recording electrode and the intracellular fluid is achieved by using amphotericin B to form pores in the cell membrane. This enables the cell membrane potential or current flow across the cell membrane to be recorded accurately. Kainate, topiramate and other test compounds were microperfused onto the neurons using a multi-barrel Teflon concentration clamp pipette. Topiramate (dissolved in DMSO at 1M, then diluted in the medium in which the neurons were incubated) was applied at concentrations of […] kainate was applied at concentrations 0.1 or 1 mM.
In an initial set of experiments, the antagonistic action of topiramate on kainate-evoked currents was determined as a function of the membrane potential.
The time-course of topiramate's antagonistic activity was evaluated in a second set of experiments. Kainate was pulsed into the bathing fluid for 3 sec at 1 min intervals, and once a baseline for the kainate-evoked current was established topiramate was applied constantly for a period ranging from a few min to 20 min. […] Concentration-response curves were generated for both phases of topiramate's blocking effect. The EC50 was approximately 1 micromolar for each phase. However, the concentration required for a maximum response was approximately 0.1 mM for the first phase (phase I block) but only approximately 0.010 mM for second (phase II block).
Because of the compelling evidence that the functional state of glutamate receptors is regulated partly by protein kinases and phosphatases (L. Y. WANG, F. A. TAVERNA, X. P. HUANG, J. F. MACDONALD, and D. R. HAMPSON, Science 259, 1173-1175, 1993), the phase II blocking effect could be explained by dephosphorylation of the kainate-activated receptors. Based on evidence that cAMP-dependent protein kinase (PKA) modulates kainate activated receptors(L. Y. WANG, F. A. TAVERNA, X. P. HUANG, J. F. MACDONALD, and D. R. HAMPSON, Science 259, 1173-1175, 1993), a set of experiments was undertaken to determine if dibutyryl cyclic AMP could restore the excitatory activity of kainate subsequent to topiramate's phase II block; i.e., cause the "irreversible" effect to be reversed. […] In another set of experiments the nonspecific phosphatase inhibitor okadaic acid was applied at 1 micromolar prior to, and during, the application of topiramate to determine if inhibiting the dephosphorylation of the kainate activated receptors would prevent the phase II blocking effect of topiramate.

[2] = test system: rodent models of epilepsy; conditions: several rodent models of epilepsy; cited from earlier work
[3] = test system: animal model of kindled epilepsy; conditions: cited from earlier work
human epilepsy = conditions: clinical trials of human epilepsy; cited from earlier work
[4] = 1 micromolar, prior to and during topiramate

With `C=C1[C@@H](O)[C@@H]2O[C@]3(CC[C@H](/C=C/[C@@H](C)[C@@H]4CC(C)=C[C@@]5(O[C@H](C[C@@](C)(O)C(=O)O)CC[C@H]5O)O4)O3)CC[C@H]2O[C@@H]1[C@@H](O)C[C@H](C)[C@H]1O[C@@]2(CCCCO2)CC[C@H]1C` [okadaic acid] the “effect on kainate-evoked current prior to application of topiramate” value ([1]; 1 micromolar) was “little effect”, the “effect on topiramate's initial antagonistic effect (phase I block)” value [1, 4] was “did not affect” and the “effect on topiramate's phase II block” value [1, 4] was “phase II block was prevented”.

In the case of `CCCC(=O)Nc1ncnc2c1ncn2[C@@H]1O[C@@H]2COP(=O)(O)O[C@H]2[C@H]1OC(=O)CCC` [dibutyryl cyclic AMP], the “restoration of kainate-evoked current after topiramate's phase II block” value ([1]; applied subsequent to topiramate phase II block) is reported as “partially or totally restored the kainate-evoked current”.

In the case of `CC1(C)O[C@@H]2[C@@H](CO[C@@]3(COS(N)(=O)=O)OC(C)(C)O[C@@H]23)O1` [topiramate, 2,3:4,5-bis-O-(1-methylethylidene)-β-D-fructopyranosesulfamate], the block of seizures [2] is listed as “effectively block seizures”, the block of seizures [3] is listed as “effectively block seizures” and the “efficacy in simple and complex partial seizures and secondarily generalized seizures” value (human epilepsy) is listed as “effective as adjunctive therapy or as monotherapy”. The EC50 ([1]; phase I block (early, reversible), read-out: EC50 of block of kainate-evoked current, first phase (phase I block)) was roughly 1000 nM, the EC50 ([1]; phase II block (constant application more than 10 min), read-out: EC50 of block of kainate-evoked current, second phase (phase II block)) was roughly 1000 nM and the “onset of partial block of kainate-evoked current” value ([1]; kainate pulsed 3 sec at 1 min intervals, topiramate applied constantly) was “evident within one min”. For the same compound, the “concentration required for a maximum response, phase I block” value ([1]; phase I block) was “approximately 0.1 mM”, the “concentration required for a maximum response, phase II block” value ([1]; phase II block) was “approximately 0.010 mM” and the “magnitude of antagonistic effect on kainate-induced membrane currents after prolonged application” value ([1]; topiramate applied constantly for more than 10 min) was “increased markedly”. The “kainate-evoked current after withdrawal following prolonged application” value ([1]; topiramate applied more than 10 min, then withdrawn) was “remained depressed”, the “reversibility of early block on washout” value ([1]; topiramate withdrawn (washed out) within 5 min) was “readily reversed” and the “dependence of antagonistic effect on membrane potential” value ([1]; voltage-clamped potentials -60 mV to +60 mV at 20 mV increments) was “most effective at membrane potentials near the resting state”.
